Laboratory results reported in US20240122878A1 (priority 2021, published 2024).
Values joined by “and” are separate entries in the source; they are usually repeats but may differ in a detail not shown here. Equal entries are not always repeated. Structures can show the parent of a compound that is named as a salt.

What was measured:
[1] = in vitro; details: 37° C.; for half-life at 10 μM / half-life: simulated gi fluid; for half-life at 10 μM / Half-Life, Rep. 1-3 / Half-Life, Mean / half-life: 10 μM; for % Compound Remaining, Mean / % Compound Remaining, Rep. 1-3: 100 μg/mL
Procedure: Gastrointestinal solution stability was performed along with the Caco-2 cell permeability assay study.

[2] = target: hERG (Homo sapiens, UniProt Q12809); test: Non GLP hERG channel current study (manual patch); assay type: cell-based; details: human
Sequence of hERG (Q12809 whole entry): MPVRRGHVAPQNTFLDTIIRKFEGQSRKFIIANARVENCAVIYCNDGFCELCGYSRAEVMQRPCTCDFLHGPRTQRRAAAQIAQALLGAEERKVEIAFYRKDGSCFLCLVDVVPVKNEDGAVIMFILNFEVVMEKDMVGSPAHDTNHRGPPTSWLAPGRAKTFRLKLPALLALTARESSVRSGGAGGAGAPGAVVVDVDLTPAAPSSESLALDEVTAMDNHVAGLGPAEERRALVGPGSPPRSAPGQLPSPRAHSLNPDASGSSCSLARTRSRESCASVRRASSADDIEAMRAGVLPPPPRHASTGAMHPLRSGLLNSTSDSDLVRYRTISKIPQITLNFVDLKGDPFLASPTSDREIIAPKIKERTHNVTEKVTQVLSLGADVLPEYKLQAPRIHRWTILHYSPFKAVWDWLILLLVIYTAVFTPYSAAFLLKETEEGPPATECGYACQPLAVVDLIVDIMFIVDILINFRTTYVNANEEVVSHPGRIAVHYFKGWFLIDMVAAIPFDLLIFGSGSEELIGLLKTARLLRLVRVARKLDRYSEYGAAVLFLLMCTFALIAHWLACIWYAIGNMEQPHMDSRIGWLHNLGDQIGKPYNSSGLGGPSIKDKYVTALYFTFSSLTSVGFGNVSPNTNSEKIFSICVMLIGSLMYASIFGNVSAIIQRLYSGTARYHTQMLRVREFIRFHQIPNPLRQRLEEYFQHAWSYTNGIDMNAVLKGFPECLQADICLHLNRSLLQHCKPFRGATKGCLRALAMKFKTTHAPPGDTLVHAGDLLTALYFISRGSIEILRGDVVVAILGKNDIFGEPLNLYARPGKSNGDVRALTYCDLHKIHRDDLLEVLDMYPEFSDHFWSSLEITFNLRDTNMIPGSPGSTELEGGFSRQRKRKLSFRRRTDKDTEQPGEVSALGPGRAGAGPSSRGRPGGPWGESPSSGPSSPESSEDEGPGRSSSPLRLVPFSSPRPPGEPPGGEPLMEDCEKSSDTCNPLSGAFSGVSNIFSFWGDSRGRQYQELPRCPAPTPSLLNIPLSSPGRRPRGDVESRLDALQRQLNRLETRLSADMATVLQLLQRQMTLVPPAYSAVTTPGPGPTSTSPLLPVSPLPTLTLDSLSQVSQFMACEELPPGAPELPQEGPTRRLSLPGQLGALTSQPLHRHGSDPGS
Procedure: (§1) The objective of this study was to examine the in vitro effects of three test articles on the hERG (human ether-a-go-go-related gene) channel current (a surrogate for the rapidly activating delayed rectifier cardiac potassium current, IKr). The concentration-response relationship was evaluated at near-physiological temperature (35-37° C.

[3] = target: hERG (human ether-a-go-go-related gene) channel current (Homo sapiens, UniProt Q12809); test: Non GLP hERG channel current study (manual patch); assay type: cell-based; details: for Hill coefficient: non GLP study
Sequence of hERG (human ether-a-go-go-related gene) channel current (Q12809 whole entry): as above
Procedure: as §1

[4] = in vitro; details: human
Description: (§2) Based on historical data obtained in the experimental model, the mean permeability value (Papp) for each reference compound was expected to fall within the predetermined specifications.
(§3) Fluorescein was used as the zero-permeability marker in all Caco-2 cell assays as a quality control for the integrity of the Caco-2 monolayer. […] Well-defined criteria (known or readily available to those of ordinary skill in the art) have been established for the acceptance of fluorescein results to validate monolayer integrity.
(§4) Testing concentrations for the in vitro permeability assessment were determined at 1%, 10%, and 100% of the highest strength dissolved in 250 mL. […]

[5] = test system: Caco-2 monolayer; test: in vitro
Description: as §2, §3, §4

[6] = Equilibrium solubility study; details: for solubility thermodynamic: 37 °C, thermodynamic from solid, Equilibrium solubility
[7] = Caco-2, Percent Recovery, Mean, A-B, 10 μM
[8] = Caco-2, Percent Recovery, Mean, B-A, 10 μM
[9] = Caco-2, Percent Recovery, Rep. 1-3, A-B, 10 μM
[10] = Caco-2, Percent Recovery, Rep. 1-3, B-A, 10 μM
[11] = Caco-2, pH 6.5, Permeability, Mean
[12] = Caco-2, pH 6.5, Permeability, Mean, A-B, Caco-2, pH 6.5/7.4, 10 μM
[13] = Caco-2, pH 6.5, Permeability, Rep. 1-3
[14] = Caco-2, pH 6.5, Permeability, Rep. 1-3, A-B, Caco-2, pH 6.5/7.4, 10 μM
[15] = Caco-2, pH 6.5, Permeability, Rep. 1-3, B-A, Caco-2, pH 6.5/7.4, 10 μM
[16] = Caco-2, pH 6.5, Permeability, Mean (SD)
[17] = simulated gastric fluid, 0 minutes
[18] = simulated gastric fluid, 60 minutes
[19] = simulated intestinal fluid, 0 minutes
[20] = simulated intestinal fluid, 180 minutes

In the case of `O=C(O)CCCc1ccc(N(CCCl)CCCl)cc1` [Chlorambucil, reference compound], the half-life at 10 μM ([1]; Mean, simulated intestinal fluid) is reported as 26 min, the half-life at 10 μM ([1]; Rep. 1-3, simulated intestinal fluid) is reported as 26.2 min and the “Half-Life, Rep. 1-3” value ([1]; simulated intestinal fluid) is reported as 25.7 min.

Work on `CCC(=O)C(CC(C)N(C)C)(c1ccccc1)c1ccccc1` (racemic) [racemic methadone] yielded an IC50 [2] of 1 µM, an inhibition at 0.3 µM ([2]; 0.3 μM, read-out: Inhibition of hERG current (Mean, SEM; n=4)) of 33.4% and an inhibition at 1 µM ([2]; 1 uM, read-out: Inhibition of hERG current (Mean, SEM; n=4)) of 43.6%. For the same compound, the inhibition at 10 µM ([2]; 10 μM, read-out: Inhibition of hERG current (Mean, SEM; n=4)) was 86.9%, the inhibition at 3 μM ([2]; 3 AM, read-out: Inhibition of hERG current (Mean, SEM; n=4)) was 71.1% and the Hill coefficient [3] was 0.743.

Compound `CC(C)NCC(O)COc1cccc2ccccc12` (stereo not drawn) [Propranolol] has a recovery [4, 7] of 104%, a recovery [4, 8] of 108% and a recovery [4, 9] of 106%. For the same compound, the recovery [4, 10] was 106%, the Papp B→A [4, 11] was 475 nm/s and the Papp A→B [4, 12] was 409 nm/s. The Papp B→A [4, 13] was 481 nm/s, the Papp A→B [4, 14] was 454 nm/s and the Papp B→A at 10 μM [4, 15] was 488 nm/s. For the same compound, the “Percent Recovery, Rep. 1-3” value ([5]; A-B, 10 μM) was 99%, the “Permeability, Rep. 1-3” value ([5]; A-B, Caco-2, pH 6.5/7.4, 10 μM) was 40.35 10^−6 cm/s and 36.94 10^−6 cm/s and the “Percent Recovery, Rep. 1-3” value ([5]; B-A, 10 μM) was 115% and 102%. The “Permeability, Rep. 1-3” value ([5]; human, Caco-2, pH 6.5) was 45.79 10^−6 cm/s.

`CCC(=O)C(C[C@@H](C)N(C)C)(c1ccccc1)c1ccccc1` [levomethadone] gave an inhibition at 0.366 µM ([2]; 0.366 μM (n=5), 35-37° C., read-out: Inhibition of hERG current (Mean±SEM)) of 36 ± 4.9%, an inhibition at 1.13 µM ([2]; 1.13 μM (n=4), read-out: Inhibition of hERG current (Mean±SEM)) of 54.3 ± 6.7% and an inhibition at 3.32 µM ([2]; 3.32 μM (n=4), read-out: Inhibition of hERG current (Mean±SEM)) of 73.6 ± 1.5%. For the same compound, the inhibition at 11.2 µM ([2]; 11.2 μM, read-out: Inhibition of hERG current (Mean±SEM)) was 90 ± 0.5%, the IC50 [3] was 0.828 µM and the Hill coefficient [3] was 0.764.

For `CNC(=C[N+](=O)[O-])NCCSCc1ccc(CN(C)C)o1` [Ranitidine], the recovery [4, 7] was 101%, the recovery [4, 9] was 100% and the Papp A→B [4, 11] was 7 nm/s. The Papp B→A [4, 11] was 24 nm/s, the Papp A→B [4, 13] was 8 nm/s and the Papp B→A [4, 13] was 25.4 nm/s. For the same compound, the “Percent Recovery, Rep. 1-3” value ([5]; A-B, 10 μM) was 99% and the “Percent Recovery, Rep. 1-3” value ([5]; B-A, 10 μM) was 96% and 92%.

`CC(CCc1ccccc1)NCC(O)c1ccc(O)c(C(N)=O)c1` (stereo not drawn) [Labetalol] showed a recovery [4, 7] of 117%, a recovery [4, 9] of 118% and a Papp A→B [4, 12] of 196 nm/s. The Papp B→A ([4]; Caco-2, pH 6.5, Permeability, Mean, B-A, Caco-2, pH 6.5/7.4, 10 μM) was 493 nm/s, the Papp A→B [4, 14] was 202 nm/s and the Papp B→A [4, 15] was 487 nm/s.

For `CC(C)[N+](C)(CCOC(=O)C1c2ccccc2Oc2ccccc21)C(C)C` [Propanthaline, reference compound], the “Half-Life, Mean” value ([1]; simulated gastric fluid) was over 60 min, the “Half-Life, Rep. 1-3” value ([1]; simulated gastric fluid) was over 60 min and the “Half-Life, Mean” value ([1]; simulated intestinal fluid) was over 180 min. The “Half-Life, Rep. 1-3” value ([1]; simulated intestinal fluid) was 253.1 min and 251.2 min and 227.0 min.

Compound `CCC(=O)C(C[C@H](C)N(C)C)(c1ccccc1)c1ccccc1` [esmethadone HCl] has a recovery ([4]; Caco-2, Mean recovery values, across the assays) of 51 to 74%, a recovery ([4]; Caco-2, Percent Recovery, Mean (SD), A-B, 1 μg/mL) of 51% and a recovery ([4]; Caco-2, Percent Recovery, Mean (SD), A-B, 10 μg/mL) of 57%. For the same compound, the recovery ([4]; Caco-2, Percent Recovery, Mean (SD), A-B, 100 μg/mL) was 61%, the recovery ([4]; Caco-2, Percent Recovery, Mean (SD), B-A, 1 μg/mL) was 60% and the recovery ([4]; Caco-2, Percent Recovery, Mean (SD), B-A, 10 μg/mL) was 74%. For the same compound, the recovery ([4]; Caco-2, Percent Recovery, Mean (SD), B-A, 100 μg/mL) was 74%, the recovery ([4]; Caco-2, Percent Recovery, Rep. 1-3, A-B, 1 μg/mL) was 53% and the recovery ([4]; Caco-2, Percent Recovery, Rep. 1-3, A-B, 10 μg/mL) was 57%. The recovery ([4]; Caco-2, Percent Recovery, Rep. 1-3, A-B, 100 μg/mL) was 64%, the recovery ([4]; Caco-2, Percent Recovery, Rep. 1-3, B-A, 1 μg/mL) was 65% and the recovery ([4]; Caco-2, Percent Recovery, Rep. 1-3, B-A, 10 μg/mL) was 67%. For the same compound, the recovery ([4]; Caco-2, Percent Recovery, Rep. 1-3, B-A, 100 μg/mL) was 74%, the Papp A→B [4, 16] was 163 nm/s and the Papp B→A [4, 16] was 286 nm/s. For the same compound, the Papp A→B [4, 13] was 210 nm/s, the Papp B→A [4, 13] was 294 nm/s and the “Percent Recovery, Rep. 1-3” value ([5]; A-B, 10 μg/mL) was 54%. For the same compound, the “Percent Recovery, Rep. 1-3” value ([5]; A-B, 100 μg/mL) was 56%, the “Percent Recovery, Rep. 1-3” value ([5]; B-A, 1 μg/mL) was 58% and 59% and the “Percent Recovery, Rep. 1-3” value ([5]; B-A, 10 μg/mL) was 82%. The “Percent Recovery, Rep. 1-3” value ([5]; B-A, 100 μg/mL) was 82% and 68%, the Permeability category ([5]; Caco-2) was “high permeability” and the “% Compound Remaining, Mean” value [1, 17] was 100 % remaining. The “% Compound Remaining, Rep. 1-3” value [1, 17] was 100.0 % remaining, the “% Compound Remaining, Mean” value [1, 18] was 109 % remaining and the “% Compound Remaining, Rep. 1-3” value [1, 18] was 110.2 % remaining and 127.3 % remaining and 90.0 % remaining. For the same compound, the “% Compound Remaining, Mean” value [1, 19] was 100 % remaining, the “% Compound Remaining, Rep. 1-3” value [1, 19] was 100.0 % remaining and the “% Compound Remaining, Mean” value [1, 20] was 97 % remaining. The “% Compound Remaining, Rep. 1-3” value [1, 20] was 89.6 % remaining and 96.6 % remaining and 105.9 % remaining, the solubility thermodynamic ([6]; pH 1.2, simulated gastric fluid, Mean, pH 1.2, 37° C.) was 58.8 mg/mL and the solubility thermodynamic ([6]; pH 1.2, simulated gastric fluid, replicates, pH 1.2, 37° C., individual replicates) was 62.1 mg/mL. The solubility thermodynamic ([6]; pH 4.5, aqueous buffer, Mean, pH 4.5, 37° C.) was 66.9 mg/mL, the solubility thermodynamic ([6]; pH 4.5, aqueous buffer, replicates, pH 4.5, 37° C., individual replicates) was 67 mg/mL and the solubility thermodynamic ([6]; pH 6.8, aqueous buffer, Mean, pH 6.8, 37° C.) was 3.2 mg/mL. The solubility thermodynamic ([6]; pH 6.8, aqueous buffer, replicates, pH 6.8, 37° C., individual replicates) was 3.1 mg/mL, the “Stability of the drug substance in each buffer” value ([6]; over the total time of the solubility study) was at most 10% and the “Equilibrium solubility, replicates” value ([6]; pH 1.2, 37° C., individual replicates) was 60.0 mg/mL and 54.2 mg/mL. For the same compound, the “Equilibrium solubility, replicates” value ([6]; pH 4.5, 37° C., individual replicates) was 66.7 mg/mL and 66.8 mg/mL and the “Equilibrium solubility, replicates” value ([6]; pH 6.8, 37° C., individual replicates) was 3.2 mg/mL.

In the case of `COc1cc2c(c(OC)c1OC)-c1ccc(OC)c(=O)cc1[C@@H](NC(C)=O)CC2` [Colchicine], the recovery [4, 8] is reported as 91%, the recovery [4, 9] is reported as 88% and the recovery [4, 10] is reported as 88%. It also gave a Papp A→B [4, 11] of 3 nm/s, a Papp B→A [4, 11] of 73 nm/s and a Papp A→B [4, 13] of 3.1 nm/s. For the same compound, the Papp B→A [4, 13] was 76.9 nm/s, the “Percent Recovery, Rep. 1-3” value ([5]; A-B, 10 μM) was 78% and the “Percent Recovery, Rep. 1-3” value ([5]; B-A, 10 μM) was 94%.

In the case of `CC[C@H]1OC(=O)[C@H](C)[C@@H](O[C@H]2C[C@@](C)(OC)[C@@H](O)[C@H](C)O2)[C@H](C)[C@@H](O[C@@H]2O[C@H](C)C[C@H](N(C)C)[C@H]2O)[C@](C)(O)C[C@@H](C)C(=O)[C@H](C)[C@@H](O)[C@]1(C)O` [Erythromycin, reference compound], the “Half-Life, Rep. 1-3” value ([1]; simulated gastric fluid) is reported as 6.5 min, the half-life ([1]; Mean, simulated gastric fluid) is reported as 6 min and the half-life ([1]; Rep. 1-3, simulated gastric fluid) is reported as 6.4 min.
